Key:
Puccinia recondita = experiment: Protective activity against Puccinia recondita on wheat (brown rust of wheat) (Puccrt P1); format: in vivo; details: 250 ppm active compound, potted wheat seedlings sprayed to runoff, inoculated next day; untreated plants 90% infected
Procedure: The active compounds were prepared separately or jointly as a stock solution comprising 25 mg of active compound which was made up to 10 ml using a mixture of acetone and/or DMSO and the emulsifier Wettol EM 31 (wetting agent having emulsifying and dispersing action based on ethoxylated alkylphenols) in a volume ratio of solvent/emulsifier of 99:1. The mixture was then made up to 100 ml with water. This stock solution was diluted with the solvent/emulsifier/water mixture described to give the concentration of active compound stated below. Leaves of potted wheat seedlings were sprayed to runoff point with an aqueous suspension having the active compound concentration stated below. The next day, the treated plants were inoculated with a spore suspension of brown rust of wheat (Puccinia recondita). The plants were then placed in a chamber with high atmospheric humidity (90 to 95%) at 20 to 22° C. for 24 hours. During this time, the spores germinated and the germ tubes penetrated into the leaf tissue. The next day, the test plants were returned to the greenhouse and cultivated at temperatures between 20 and 22° C. and at 65 to 70% relative atmospheric humidity for a further 7 days. The extent of the rust fungus development on the leaves was then determined visually.

Pyrenophora teres = experiment: Activity against net blotch of barley caused by Pyrenophora teres at 1 day protective application (Pyrnte P1); format: in vivo, Pyrenophora [syn. Drechslera] teres on barley; details: 250 ppm active compound, potted barley seedlings sprayed to runoff, inoculated after 24 hours, assessed after 6 days; untreated plants 90% infected
Procedure: The active compounds were prepared separately or jointly as a stock solution comprising 25 mg of active compound which was made up to 10 ml using a mixture of acetone and/or DMSO and the emulsifier Wettol EM 31 (wetting agent having emulsifying and dispersing action based on ethoxylated alkylphenols) in a volume ratio of solvent/emulsifier of 99:1. The mixture was then made up to 100 ml with water. This stock solution was diluted with the solvent/emulsifier/water mixture described to give the concentration of active compound stated below. Leaves of potted barley seedlings were sprayed to runoff point with an aqueous suspension having the active compound concentration stated below. 24 hours after the spray coat had dried on, the test plants were inoculated with an aqueous spore suspension of Pyrenophora [syn. Drechslera] teres, the net blotch pathogen. The test plants were then placed in a greenhouse at temperatures between 20 and 24° C. and at 95 to 100% relative atmospheric humidity. After 6 days, the extent of the development of the disease was determined visually in % infection of the entire leaf area.

In the case of `Fc1ccc([C@@]2(Cn3cncn3)O[C@@H]2c2cc(Cl)sc2Cl)cc1` (racemic) [1-{[(2SR,3RS)-3-(2,5-dichlorothiophen-3-yl)-2-(4-fluorophenyl)oxiran-2-yl]methyl}-1H-1,2,4-triazole], the “infection (extent of rust fungus development on the leaves, determined visually)” value (Puccinia recondita) is reported as 0% and the “infection (% infection of the entire leaf area, determined visually)” value (Pyrenophora teres) is reported as 15%.

Source: US20090197929A1, “Azolylmethyloxiranes, Their Use for Controlling Phytopathogenic Fungi and Agents Containing Said Compounds” (BASF SE, priority 2006, published 2009)
